Laboratory results as given in paper PMC5964007 (Nature chemical biology, 2018).

Columns and labels:
[1] = molecular target: T1, E. coli penicillin amidase (Escherichia coli, UniProt P06875); experiment: pH-shift colorimetric kinetic assay; type: biochemical; conditions: pH 8.4, 10 mM m-nitrophenol, 25 °C, 5 U/ml enzyme
[2] = molecular target: T1, E. coli penicillin amidase; experiment: pH-shift colorimetric kinetic assay; type: biochemical; conditions: 5 mM MOPS pH 7.2, 25 °C

T1 sequence (P06875 27-235): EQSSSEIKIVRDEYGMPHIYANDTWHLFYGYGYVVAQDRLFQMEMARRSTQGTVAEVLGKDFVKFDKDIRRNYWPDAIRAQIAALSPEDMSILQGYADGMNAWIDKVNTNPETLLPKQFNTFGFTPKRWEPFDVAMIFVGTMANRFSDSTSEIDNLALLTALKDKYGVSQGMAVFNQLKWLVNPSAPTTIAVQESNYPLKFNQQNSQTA
T1 sequence (P06875 290-846): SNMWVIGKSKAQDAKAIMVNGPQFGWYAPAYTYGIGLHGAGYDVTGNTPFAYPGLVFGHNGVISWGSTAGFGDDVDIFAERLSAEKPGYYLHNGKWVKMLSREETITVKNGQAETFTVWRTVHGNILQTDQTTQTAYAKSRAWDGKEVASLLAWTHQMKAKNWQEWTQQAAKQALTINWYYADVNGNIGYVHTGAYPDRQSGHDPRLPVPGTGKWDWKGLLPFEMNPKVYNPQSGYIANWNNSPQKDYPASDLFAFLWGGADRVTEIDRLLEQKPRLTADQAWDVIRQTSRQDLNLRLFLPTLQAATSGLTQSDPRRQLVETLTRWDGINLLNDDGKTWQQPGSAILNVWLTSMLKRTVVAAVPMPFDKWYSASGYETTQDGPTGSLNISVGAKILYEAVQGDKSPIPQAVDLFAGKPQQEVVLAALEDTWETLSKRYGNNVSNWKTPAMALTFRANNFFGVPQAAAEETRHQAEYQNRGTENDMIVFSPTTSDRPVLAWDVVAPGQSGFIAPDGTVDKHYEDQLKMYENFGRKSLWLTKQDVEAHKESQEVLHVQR

Q: For `CC1(C)S[C@H]([C@H](NC(=O)Cc2ccccc2)C(=O)O)N[C@H]1C(=O)O` [benzylpenicilloic acid], which “pH-shift colorimetric kinetic assay (m-nitrophenol); LCMS” value [1] is on record?
A: when both Put1 and E. coli penicillin amidase were incubated with benzylpenicilloic acid as a substrate

Q: How did the “pH-shift colorimetric kinetic assay (p-nitrophenol)” value [2] turn out when `CC1(C)S[C@@H]2[C@H](NC(=O)Cc3ccccc3)C(=O)N2[C@H]1C(=O)O` [penicillin] was run?
A: E. coli penicillin amidase and commercial B. cereus β-lactamase enzymes exhibit Michaelis-Menten kinetics with penicillin
